We go through one compound from paper PMC12217109, “Development of novel benzamide class I selective lysine deacetylase inhibitors as potent anticancer agents” (Journal of Enzyme Inhibition and Medicinal Chemistry, 2025).

One data set concerns the target HDAC6 (Homo sapiens, UniProt Q9UBN7). Description: Inhibition of individual recombinant KDACs.
In the next data set the test system is leukemic cell lines. Description: NCI-60 cytotoxicity screen, leukaemic cell lines. In kind it is cell-based. As to conditions: Homo sapiens; NCI-60, range over cell lines; read-out: cytotoxicity IC50 against leukemic cell lines. From the text: Compounds 3–7 were submitted to the US National Cancer Institute (NIH, Bethesda, Maryland) for screening against the NCI-60 panel of human cancer cell lines, as per standard protocol.

Data set [1] has as its system A2780 human ovarian tumour xenograft. Description: A2780 human ovarian tumour xenograft efficacy study. In kind it is in vivo, mice. The settings on record: 100 mg/kg i.p. days 0–4 and 7–11. From the text: Female CD-1 (Crl:CD1-Foxn1^nu) immunodeficient nude mice aged 6–12 weeks were used (Charles River, Margate UK). Mice were kept in stainless steel cages housed in isolation cabinets in an air-conditioned room with regular alternating cycles of light and darkness, receiving Teklad 2018 diet (Envigo, Blackthorn, UK) and water ad libitum. Before experimentation, all mice were allowed to acclimatise for one week to their environment. Environmental enrichment was provided in the form of Perspex “mouse houses”, chewing blocks and exercise wheels.
To assess in vivo compound efficacy, mice were implanted subcutaneously in the abdominal flanks with 2–3 mm^3 -fragments of A2780 human ovarian tumour xenograft tumours, whilst under brief general inhalation anaesthesia (2% isoflurane). Treatments were initiated when tumours reached approximately 32 mm^3 and mice randomly assigned to cohorts (Twelve mice; n = 6 per group). […] Tumour volume, via calliper measurements, and body weight were assessed daily from initiation of treatment. The cut-off points for in-study termination being a > 15% body weight loss over a 72-h period and the tumour not exceeding 15 mm in the longest diameter. All mice were euthanised by isoflurane anaesthesia followed by cervical dislocation […]
A general note: A xenograft is tissue or cells of one species grown in another, often human tumour cells in immunodeficient mice.

The target in the next data set is HDAC5 (Homo sapiens, UniProt Q9UQL6). Description: Inhibition of individual recombinant KDACs.
In a further data set the target is HDAC4 (Homo sapiens, UniProt P56524). Briefly: Inhibition of individual recombinant KDACs.
Data set [2] relates to hyperacetylated Histone H4. Description: Western blot of histone H4 hyperacetylation in A2780 cells. In kind it is cell-based, human. As to conditions: A2780, 10 µM, 2, 4, 16 hrs. The procedure:
Cells were then washed with ice-cold phosphate buffered saline (PBS) and lysed and sonicated in RIPA buffer [150 mM NaCl, 50 mM TrisHCl pH 7.4, 5 mM EDTA, 1% NP40, 0.1% SDS, 1 mM phenylmethylsulphonyl fluoride (PMSF) and proteinase inhibitor cocktail (1x)]. Cellular debris was removed by centrifugation (12,000 × g for 20 min, 4 °C) and protein concentration of the supernatants determined by Bradford Assay. Proteins (30 μg protein per lane) were resolved by SDS-PAGE, then transferred to the PVDF membrane (Hybond-P; Amersham, UK). For band size determination, Amersham Full-Range Rainbow™ Molecular Weight Markers (#RPN800) were loaded adjacent to the proteins within the gel. Non-specific protein binding on the PVDF membrane was blocked using 5% non-fat milk powder and the membranes probed separately with either anti-hyperacetylated Histone H4 (Penta) antibody (Upstate Biotechnology, USA), acetylated tubulin or β-actin antibodies (Sigma-Aldrich, UK). This was followed by incubation with horseradish peroxidase (HRP)-conjugated secondary antibodies (Dako, USA), with immunoreactive bands detected by enhanced chemiluminescence (ECL Plus detection kit; Amersham, UK).
(In general: In western blotting, separated proteins are transferred to a membrane and probed.)

Another data set deals with HDAC10 (Homo sapiens, UniProt Q969S8). Description: Inhibition of individual recombinant KDACs.

Each structure is given as a SMILES string. Entries after “also recorded” stand apart in the source; their conditions may differ.

HDAC5, sequence (Q9UQL6 whole entry): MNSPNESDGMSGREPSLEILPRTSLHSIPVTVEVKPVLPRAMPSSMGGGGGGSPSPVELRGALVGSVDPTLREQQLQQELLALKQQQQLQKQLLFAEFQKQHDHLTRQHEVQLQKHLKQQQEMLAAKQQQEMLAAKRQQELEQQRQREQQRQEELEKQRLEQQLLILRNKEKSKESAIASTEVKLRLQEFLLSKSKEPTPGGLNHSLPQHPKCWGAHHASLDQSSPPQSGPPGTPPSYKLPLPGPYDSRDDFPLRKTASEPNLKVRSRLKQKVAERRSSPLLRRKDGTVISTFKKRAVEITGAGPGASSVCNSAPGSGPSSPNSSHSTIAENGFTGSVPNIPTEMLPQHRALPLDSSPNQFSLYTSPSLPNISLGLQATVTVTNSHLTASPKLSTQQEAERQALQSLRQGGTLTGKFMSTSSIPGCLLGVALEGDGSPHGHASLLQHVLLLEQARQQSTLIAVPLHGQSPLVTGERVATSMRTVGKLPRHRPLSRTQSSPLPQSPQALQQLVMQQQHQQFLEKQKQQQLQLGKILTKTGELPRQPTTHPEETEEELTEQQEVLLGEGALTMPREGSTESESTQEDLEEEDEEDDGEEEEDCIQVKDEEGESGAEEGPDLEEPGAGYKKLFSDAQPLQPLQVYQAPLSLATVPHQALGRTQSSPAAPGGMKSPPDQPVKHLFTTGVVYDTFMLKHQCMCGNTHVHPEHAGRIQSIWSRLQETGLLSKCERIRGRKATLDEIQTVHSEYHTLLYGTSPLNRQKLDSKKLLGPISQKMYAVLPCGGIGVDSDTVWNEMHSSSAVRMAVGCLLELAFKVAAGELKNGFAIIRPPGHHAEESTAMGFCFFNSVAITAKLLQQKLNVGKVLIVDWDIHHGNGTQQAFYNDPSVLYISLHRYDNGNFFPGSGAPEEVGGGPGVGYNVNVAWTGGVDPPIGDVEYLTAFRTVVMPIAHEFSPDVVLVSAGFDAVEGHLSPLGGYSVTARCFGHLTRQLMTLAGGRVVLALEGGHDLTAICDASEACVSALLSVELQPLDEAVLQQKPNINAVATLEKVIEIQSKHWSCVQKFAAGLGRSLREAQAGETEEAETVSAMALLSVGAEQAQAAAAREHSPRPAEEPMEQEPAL
HDAC10, sequence (Q969S8 whole entry): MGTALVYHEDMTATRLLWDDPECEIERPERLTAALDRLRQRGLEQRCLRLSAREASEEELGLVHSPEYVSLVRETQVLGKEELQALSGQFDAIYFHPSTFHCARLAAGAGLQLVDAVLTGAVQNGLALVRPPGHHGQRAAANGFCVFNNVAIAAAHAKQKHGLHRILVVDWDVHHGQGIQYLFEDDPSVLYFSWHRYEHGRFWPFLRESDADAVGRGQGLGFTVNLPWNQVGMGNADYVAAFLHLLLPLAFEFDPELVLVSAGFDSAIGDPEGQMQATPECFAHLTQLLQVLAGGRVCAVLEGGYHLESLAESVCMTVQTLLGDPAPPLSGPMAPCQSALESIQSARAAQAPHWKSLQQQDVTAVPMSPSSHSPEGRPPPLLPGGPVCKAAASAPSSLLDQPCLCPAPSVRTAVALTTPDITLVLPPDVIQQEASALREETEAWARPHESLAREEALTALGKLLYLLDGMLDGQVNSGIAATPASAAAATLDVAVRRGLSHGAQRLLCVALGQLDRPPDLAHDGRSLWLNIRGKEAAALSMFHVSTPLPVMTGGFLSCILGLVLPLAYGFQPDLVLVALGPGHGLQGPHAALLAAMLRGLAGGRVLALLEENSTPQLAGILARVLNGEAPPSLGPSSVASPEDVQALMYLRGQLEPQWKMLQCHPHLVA
HDAC6, sequence (Q9UBN7 whole entry): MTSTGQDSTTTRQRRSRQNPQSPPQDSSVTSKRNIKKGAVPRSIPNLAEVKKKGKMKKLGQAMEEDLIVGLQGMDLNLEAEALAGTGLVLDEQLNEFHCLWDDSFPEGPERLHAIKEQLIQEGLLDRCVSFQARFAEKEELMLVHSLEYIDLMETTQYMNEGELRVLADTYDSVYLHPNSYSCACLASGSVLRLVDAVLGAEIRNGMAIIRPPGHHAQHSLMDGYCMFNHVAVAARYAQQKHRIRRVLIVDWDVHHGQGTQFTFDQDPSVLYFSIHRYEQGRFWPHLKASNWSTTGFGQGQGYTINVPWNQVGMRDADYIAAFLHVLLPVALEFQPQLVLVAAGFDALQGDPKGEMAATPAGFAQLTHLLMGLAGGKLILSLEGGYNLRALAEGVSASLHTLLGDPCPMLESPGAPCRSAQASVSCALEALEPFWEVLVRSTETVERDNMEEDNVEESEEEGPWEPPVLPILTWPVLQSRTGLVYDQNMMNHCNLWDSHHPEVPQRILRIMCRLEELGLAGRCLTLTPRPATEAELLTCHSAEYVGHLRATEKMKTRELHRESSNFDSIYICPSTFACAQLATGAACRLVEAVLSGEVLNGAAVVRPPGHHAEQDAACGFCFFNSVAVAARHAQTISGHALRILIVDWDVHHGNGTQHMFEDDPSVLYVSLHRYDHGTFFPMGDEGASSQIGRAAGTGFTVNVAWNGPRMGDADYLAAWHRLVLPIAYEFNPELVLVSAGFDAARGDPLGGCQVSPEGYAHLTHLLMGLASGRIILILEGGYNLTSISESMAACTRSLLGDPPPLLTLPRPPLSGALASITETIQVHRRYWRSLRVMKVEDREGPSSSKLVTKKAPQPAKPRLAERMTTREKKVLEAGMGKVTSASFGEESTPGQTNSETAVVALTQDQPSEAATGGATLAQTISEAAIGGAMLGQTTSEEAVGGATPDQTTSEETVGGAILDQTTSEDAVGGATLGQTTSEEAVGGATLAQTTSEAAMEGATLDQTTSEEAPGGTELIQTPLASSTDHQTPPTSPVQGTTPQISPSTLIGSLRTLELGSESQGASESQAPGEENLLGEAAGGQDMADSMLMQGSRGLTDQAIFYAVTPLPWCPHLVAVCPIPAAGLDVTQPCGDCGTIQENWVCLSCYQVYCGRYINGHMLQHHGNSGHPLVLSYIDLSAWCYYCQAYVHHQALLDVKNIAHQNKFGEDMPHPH
HDAC4, sequence (P56524 whole entry): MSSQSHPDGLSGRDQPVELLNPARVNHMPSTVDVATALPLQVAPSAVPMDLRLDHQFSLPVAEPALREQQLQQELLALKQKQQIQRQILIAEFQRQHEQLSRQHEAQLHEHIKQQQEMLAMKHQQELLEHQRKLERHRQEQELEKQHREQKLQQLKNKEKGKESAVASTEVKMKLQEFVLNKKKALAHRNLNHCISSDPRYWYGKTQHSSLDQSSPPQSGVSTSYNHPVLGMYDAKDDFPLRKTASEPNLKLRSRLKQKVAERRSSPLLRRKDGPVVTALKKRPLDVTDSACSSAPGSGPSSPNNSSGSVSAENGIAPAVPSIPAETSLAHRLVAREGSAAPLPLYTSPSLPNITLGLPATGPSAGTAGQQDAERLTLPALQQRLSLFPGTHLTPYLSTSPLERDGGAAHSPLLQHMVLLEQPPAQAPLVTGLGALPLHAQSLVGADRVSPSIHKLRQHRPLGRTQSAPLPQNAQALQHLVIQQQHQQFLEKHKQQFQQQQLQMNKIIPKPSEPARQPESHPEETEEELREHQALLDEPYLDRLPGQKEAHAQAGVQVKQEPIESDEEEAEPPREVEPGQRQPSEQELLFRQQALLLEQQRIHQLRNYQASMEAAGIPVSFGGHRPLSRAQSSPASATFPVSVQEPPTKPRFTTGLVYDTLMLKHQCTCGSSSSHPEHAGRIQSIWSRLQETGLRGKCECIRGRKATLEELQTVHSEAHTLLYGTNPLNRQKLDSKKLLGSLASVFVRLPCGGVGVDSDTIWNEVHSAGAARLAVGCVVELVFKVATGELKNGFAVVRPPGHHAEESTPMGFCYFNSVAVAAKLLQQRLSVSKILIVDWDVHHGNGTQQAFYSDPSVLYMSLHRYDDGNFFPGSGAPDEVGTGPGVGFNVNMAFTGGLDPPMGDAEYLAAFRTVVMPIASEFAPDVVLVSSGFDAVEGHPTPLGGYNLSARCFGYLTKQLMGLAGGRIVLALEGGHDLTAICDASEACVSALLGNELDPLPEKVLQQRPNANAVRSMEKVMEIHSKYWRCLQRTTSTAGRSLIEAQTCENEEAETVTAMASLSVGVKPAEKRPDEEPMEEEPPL

In the case of `C=C(CN1CCN(c2cccc(C(F)(F)F)n2)CC1)c1ccc(C(=O)Nc2ccccc2N)cc1` [Compound 7, N-(2-aminophenyl)-4–(3-(4–(6-(trifluoromethyl)pyridin-2-yl)piperazin-1-yl)prop-1-en-2-yl)benzamide], the IC50 (commonly the concentration at which inhibition is half-maximal) at HDAC6 was more than 10 µM; with leukemic cell lines it was 280 to 860 nM; at HDAC5, more than 10 µM; on HDAC4, more than 10 µM; at HDAC10, more than 10 µM. Besides, the “weight loss / toxicity during treatment” value in data set [1] is on record as “No significant weight loss or overt toxicity; also recorded: did not induce significant weight loss or detrimental toxicity”. For the same compound, the “histone H4 hyperacetylation (western blotting)” value in data set [2] is “Time dependent increase in Histone H4 acetylation; also recorded: time-dependent increase in histone H4 hyperacetylation”.
